Patent publication US20220402900A1, “1,2,4-OXADIAZOL-5-ONE DERIVATIVES FOR THE TREATMENT OF CANCER” (Basilea Pharmaceutica International AG, priority 2019, published 2022)

Experiments:
[1] = target: T1, human TEAD2 (amino acids 217-447) (Homo sapiens, UniProt Q15562); experiment: Thermal shift assay (TSA); format: binding; settings: 3 μM recombinant TEAD2, compound 7 μM, shift vs DMSO control
T1 construct: human TEAD2 (amino acids 217-447); His-tag (N); purchased Proteros biostructures PR-0365; host or cells: E. coli
Procedure: The thermal shift assay (TSA) was utilized to characterize target engagement in vitro based on ligand-dependent thermal stabilization of the protein. N-terminally His-tagged human TEAD2 (amino acids 217-447) expressed and purified from E. coli was purchased from Proteros biostructures (cat no. PR-0365). The melting reactions were performed in white, 96 well qPCR plates (Roche Diagnostics, cat. no. 04 729 692 001) in 20 mM HEPES pH 7, 100 mM NaCl in the presence of 4×SYPRO orange (Sigma, cat. no. S5692). Each well contained 3 μM recombinant TEAD2 and either DMSO (control) or experimental compounds at a final concentration of 7 μM. The total volume was 20 μL and the final DMSO concentration was 1%. The plate was sealed and analyzed in a LightCycler 480 II (Roche Diagnostics) by continuously reading the fluorescence using the 465-580 nm filter set while heating from 25° C. to 95° C. using a linear gradient of 1° C./min. Melting temperatures were determined by numerical differentiation using the LightCycler Thermal Shift Analysis software (Roche Diagnostics). The shifts in melting temperature caused by experimental compounds compared to the control are expressed as ΔTm (Table 2).

[2] = tested on: TEAD reporter gene activity; experiment: TEAD reporter gene assay (MCF7 TEAD reporter cell line); format: cell-based; settings: Homo sapiens; TEAD luciferase reporter in MCF7 cells, 24 hours; read-out: IC50 TEAD RGA (converted)
Source text: A TEAD reporter cell line was purchased from BPS Bioscience (cat. no. 60618). It contains the firefly luciferase gene under control of TEAD responsive elements stably integrated into the human breast cancer MCF7 cells. In proliferating cells, a basal level of unphosphorylated YAP/TAZ resides in the nucleus and drives the TEAD-dependent expression of the luciferase reporter. The cells were cultivated as recommended by the supplier. Inhibition of TEAD reporter gene activity by experimental compounds was measured using white, clear-bottom, 96 well cell culture plates (Greiner Bio-One, cat. no. 655098). The cells were seeded at a density of 20,000 cells per well in 100 μL growth medium and the plates were incubated overnight at 37° C. with 5% CO2 prior to treatment. Experimental compounds were serially diluted in DMSO to 200× the desired final concentrations. 0.5 μL aliquots of DMSO or the test samples were then mixed into the wells and the cells were further incubated for 24 hours. Luminescence was then measured on a Synergy 4 reader (BioTek) using the ONE-Glo Luciferase Assay System (Promega, cat. no. E6120) according to the manufacturer's instructions. Relative inhibition values were calculated by normalizing the raw data using DMSO-treated cells (0% inhibition) and wells devoid of cells (100% inhibition). IC50 values were calculated by fitting concentration-response data to a sigmoidal 4-parameter logistic model.

T1 sequence (Q15562 217-447): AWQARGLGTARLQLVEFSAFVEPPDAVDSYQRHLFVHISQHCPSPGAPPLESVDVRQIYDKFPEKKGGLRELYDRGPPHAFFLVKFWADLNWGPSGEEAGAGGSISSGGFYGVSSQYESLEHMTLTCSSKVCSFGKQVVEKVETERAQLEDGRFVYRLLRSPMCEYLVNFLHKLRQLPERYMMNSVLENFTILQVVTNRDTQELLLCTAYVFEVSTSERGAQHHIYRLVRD

Row | Compound | ΔTm at 7 µM [1] [°C] | IC50 [2] [nM]
1 | O=c1[nH]c(-c2nc3ccccc3nc2Nc2ccc(C(F)(F)F)cc2)no1 [Example 37, 3-[3-[4-(trifluoromethyl)anilino]quinoxalin-2-yl]-4H-1,2,4-oxadiazol-5-one] | 12.1 | 188
2 | O=c1[nH]c(-c2nccnc2Nc2ccc(C3CC3)cc2)no1 [Example 39, 3-[3-(4-cyclopropylanilino)pyrazin-2-yl]-4H-1,2,4-oxadiazol-5-one] | 9.3 | 2820
3 | O=c1[nH]c(-c2nccnc2Nc2ccc(C3(C(F)(F)F)CC3)cc2)no1 [Example 40, 3-[3-[4-[1-(trifluoromethyl)cyclopropyl]anilino]pyrazin-2-yl]-4H-1,2,4-oxadiazol-5-one] | 13.4 | 109
4 | O=c1[nH]c(-c2nccnc2Nc2ccc(C3CCC3)cc2)no1 [Example 41, 3-[3-(4-cyclobutylanilino)pyrazin-2-yl]-4H-1,2,4-oxadiazol-5-one] | 12.5 | 6570
5 | N#CC1(c2ccc(Nc3nccnc3-c3noc(=O)[nH]3)cc2)CCC1 [Example 42, 1-[4-[[3-(5-oxo-4H-1,2,4-oxadiazol-3-yl)pyrazin-2-yl]amino]phenyl]cyclobutanecarbonitrile] | 5.3 | 711
6 | O=c1[nH]c(-c2nccnc2Nc2ccc(Cl)cc2)no1 [Example 43, 3-[3-(4-chloroanilino)pyrazin-2-yl]-4H-1,2,4-oxadiazol-5-one] | 6.6 | 930
7 | O=c1[nH]c(-c2c(OCCO)ccnc2Nc2ccc(Cl)cc2)no1 [Example 48, 3-[2-(4-chloroanilino)-4-(2-hydroxyethoxy)-3-pyridyl]-4H-1,2,4-oxadiazol-5-one] | 1.9 | 507
8 | O=c1[nH]c(-c2nccnc2Nc2ccc(S(F)(F)(F)(F)F)cc2)no1 [Example 50, 3-[3-[4-(pentafluoro-λ6-sulfanyl)anilino]pyrazin-2-yl]-4H-1,2,4-oxadiazol-5-one] | 12.2 | 37
9 | CC(C)(C)Oc1ccnc(Nc2ccc(C(F)(F)F)cc2)c1-c1noc(=O)[nH]1 [Example 53, 3-[4-tert-butoxy-2-[4-(trifluoromethyl)anilino]-3-pyridyl]-4H-1,2,4-oxadiazol-5-one] | 3.7 | 815
10 | O=c1[nH]c(-c2c(OCCNCCO)ccnc2Nc2ccc(C(F)(F)F)cc2)no1 [Example 54, 3-[4-[2-(2-hydroxyethylamino)ethoxy]-2-[4-(trifluoromethyl)anilino]-3-pyridyl]-4H-1,2,4-oxadiazol-5-one] | 0.9 | 357
11 | CC(=O)NCCOc1ccnc(Nc2ccc(C(F)(F)F)cc2)c1-c1noc(=O)[nH]1 [Example 56, N-[2-[[3-(5-oxo-4H-1,2,4-oxadiazol-3-yl)-2-[4-(trifluoromethyl)anilino]-4-pyridyl]oxy]ethyl]acetamide] | 4.3 | 767
12 | CS(=O)(=O)NCCOc1ccnc(Nc2ccc(C(F)(F)F)cc2)c1-c1noc(=O)[nH]1 [Example 57, N-[2-[[3-(5-oxo-4H-1,2,4-oxadiazol-3-yl)-2-[4-(trifluoromethyl)anilino]-4-pyridyl]oxy]ethyl]methanesulfonamide] | 4.1 | 388
13 | O=c1[nH]c(-c2c(OCCN3CCOCC3)ccnc2Nc2ccc(C(F)(F)F)cc2)no1 [Example 60, 3-[4-(2-morpholinoethoxy)-2-[4-(trifluoromethyl)anilino]-3-pyridyl]-4H-1,2,4-oxadiazol-5-one] | 1.3 | 465
14 | O=c1[nH]c(-c2c(OCCc3ccccn3)ccnc2Nc2ccc(C(F)(F)F)cc2)no1 [Example 61, 3-[4-[2-(2-pyridyl)ethoxy]-2-[4-(trifluoromethyl)anilino]-3-pyridyl]-4H-1,2,4-oxadiazol-5-one] | 2.9 | 147
15 | CC1(COc2ccnc(Nc3ccc(C(F)(F)F)cc3)c2-c2noc(=O)[nH]2)CC1 [Example 63, 3-[4-[(1-methylcyclopropyl)methoxy]-2-[4-(trifluoromethyl)anilino]-3-pyridyl]-4H-1,2,4-oxadiazol-5-one] | 3.4 | 1550
16 | O=c1[nH]c(-c2c(OC3CCOCC3)ccnc2Nc2ccc(C(F)(F)F)cc2)no1 [Example 64, 3-[4-tetrahydropyran-4-yloxy-2-[4-(trifluoromethyl)anilino]-3-pyridyl]-4H-1,2,4-oxadiazol-5-one] | 4.2 | 268

More lines, now with the values ahead:

Row | ΔTm at 7 µM [1] [°C] | IC50 [2] [nM] | Compound
17 | 2.5 | 3830 | CC(=O)Nc1cnc(Nc2ccc(C(F)(F)F)cc2)c(-c2noc(=O)[nH]2)n1 [Example 35, N-[6-(5-oxo-4H-1,2,4-oxadiazol-3-yl)-5-[4-(trifluoromethyl)anilino]pyrazin-2-yl]acetamide]
18 | 3.5 | 149 | Nc1cnc(-c2noc(=O)[nH]2)c(Nc2ccc(C(F)(F)F)cc2)n1 [Example 36, 3-[5-amino-3-[4-(trifluoromethyl)anilino]pyrazin-2-yl]-4H-1,2,4-oxadiazol-5-one]
19 | 12.6 | 39 | O=c1[nH]c(-c2ccccc2Nc2ccc(C(F)(F)F)cc2)no1 [Example 38, 3-[2-[4-(trifluoromethyl)anilino]phenyl]-4H-1,2,4-oxadiazol-5-one]
20 | 11.6 | 225 | O=c1[nH]c(-c2cc(Cl)cnc2Nc2ccc(C(F)(F)F)cc2)no1 [Example 44, 3-[5-chloro-2-[4-(trifluoromethyl)anilino]-3-pyridyl]-4H-1,2,4-oxadiazol-5-one]
21 | 6 | 1350 | Nc1cnc(Nc2ccc(C(F)(F)F)cc2)c(-c2noc(=O)[nH]2)c1 [Example 45, 3-[5-amino-2-[4-(trifluoromethyl)anilino]-3-pyridyl]-4H-1,2,4-oxadiazol-5-one]
22 | 7.1 | 407 | CNc1cnc(Nc2ccc(C(F)(F)F)cc2)c(-c2noc(=O)[nH]2)c1 [Example 46, 3-[5-(methylamino)-2-[4-(trifluoromethyl)anilino]-3-pyridyl]-4H-1,2,4-oxadiazol-5-one]
23 | 18 | 72 | Cc1cc(-c2noc(=O)[nH]2)c(Nc2ccc(C(F)(F)F)cc2)nc1C [Example 47, 3-[5,6-dimethyl-2-[4-(trifluoromethyl)anilino]-3-pyridyl]-4H-1,2,4-oxadiazol-5-one]
24 | 0.6 | 649 | O=c1[nH]c(-c2c(Nc3ccc(C(F)(F)F)cc3)ncc3c2CCC3)no1 [Example 49, 3-[3-[4-(trifluoromethyl)anilino]-6,7-dihydro-5H-cyclopenta[c]pyridin-4-yl]-4H-1,2,4-oxadiazol-5-one]
25 | 5.1 | 135 | O=c1[nH]c(-c2c(OCCO)ccnc2Nc2ccc(C(F)(F)F)cc2)no1 [Example 51, 3-[4-(2-hydroxyethoxy)-2-[4-(trifluoromethyl)anilino]-3-pyridyl]-4H-1,2,4-oxadiazol-5-one]
26 | 5.1 | 179 | CC(C)Oc1ccnc(Nc2ccc(C(F)(F)F)cc2)c1-c1noc(=O)[nH]1 [Example 52, 3-[4-isopropoxy-2-[4-(trifluoromethyl)anilino]-3-pyridyl]-4H-1,2,4-oxadiazol-5-one]
27 | 1 | 281 | NCCOc1ccnc(Nc2ccc(C(F)(F)F)cc2)c1-c1noc(=O)[nH]1 [Example 55, 3-[4-(2-aminoethoxy)-2-[4-(trifluoromethyl)anilino]-3-pyridyl]-4H-1,2,4-oxadiazol-5-one]
28 | 3 | 13700 | O=C(O)COc1ccnc(Nc2ccc(C(F)(F)F)cc2)c1-c1noc(=O)[nH]1 [Example 58, 2-[[3-(5-oxo-4H-1,2,4-oxadiazol-3-yl)-2-[4-(trifluoromethyl)anilino]-4-pyridyl]oxy]acetic acid]
29 | 6.7 | 2750 | NC(=O)COc1ccnc(Nc2ccc(C(F)(F)F)cc2)c1-c1noc(=O)[nH]1 [Example 59, 2-[[3-(5-oxo-4H-1,2,4-oxadiazol-3-yl)-2-[4-(trifluoromethyl)anilino]-4-pyridyl]oxy]acetamide]
30 | 5.5 | 61 | COCCOc1ccnc(Nc2ccc(C(F)(F)F)cc2)c1-c1noc(=O)[nH]1 [Example 62, 3-[4-(2-methoxyethoxy)-2-[4-(trifluoromethyl)anilino]-3-pyridyl]-4H-1,2,4-oxadiazol-5-one]
